Measurements as given in ChEMBL document CHEMBL1155067, “Carbonic anhydrase inhibitors: thioxolone versus sulfonamides for obtaining isozyme-selective inhibitors?” (Bioorg Med Chem Lett, 2008).

Key:
[1] = target: Carbonic anhydrase 5B, mitochondrial (Homo sapiens) (UniProt Q9Y2D0)
Description: Inhibition of human recombinant carbonic anhydrase 5B by stopped flow CO2 hydration method

[2] = target: Carbonic anhydrase 12 (Homo sapiens) (UniProt O43570)
Description: Inhibition of human recombinant carbonic anhydrase 12 catalytic domain by stopped flow CO2 hydration method

[3] = target: Carbonic anhydrase 14 (Homo sapiens) (UniProt Q9ULX7)
Description: Inhibition of human recombinant carbonic anhydrase 14 by stopped flow CO2 hydration method

[4] = target: Carbonic anhydrase 4 (Homo sapiens) (UniProt P22748)
Description: Inhibition of human recombinant carbonic anhydrase 4 by stopped flow CO2 hydration method

[5] = target: Carbonic anhydrase 6 (Homo sapiens) (UniProt P23280)
Description: Inhibition of human recombinant carbonic anhydrase 6 by stopped flow CO2 hydration method

[6] = target: Carbonic anhydrase 5A, mitochondrial (Homo sapiens) (UniProt P35218)
Description: Inhibition of human recombinant carbonic anhydrase 5A by stopped flow CO2 hydration method

[7] = target: Carbonic anhydrase 13 (Mus musculus) (UniProt Q9D6N1); experiment: Inhibition of mouse recombinant carbonic anhydrase 13 by stopped flow CO2 hydration method
[8] = target: Carbonic anhydrase 9 (Homo sapiens) (UniProt Q16790)
Description: Inhibition of human recombinant carbonic anhydrase 9 catalytic domain by stopped flow CO2 hydration method

[9] = target: Carbonic anhydrase 1 (Homo sapiens) (UniProt P00915)
[10] = target: T1, Carbonic anhydrase 2 (Homo sapiens, UniProt P00918)
[11] = target: T2, Carbonic anhydrase 15 (Mus musculus) (UniProt Q99N23); experiment: Inhibition of mouse recombinant carbonic anhydrase 15 by stopped flow CO2 hydration method
T2 sequence (whole entry): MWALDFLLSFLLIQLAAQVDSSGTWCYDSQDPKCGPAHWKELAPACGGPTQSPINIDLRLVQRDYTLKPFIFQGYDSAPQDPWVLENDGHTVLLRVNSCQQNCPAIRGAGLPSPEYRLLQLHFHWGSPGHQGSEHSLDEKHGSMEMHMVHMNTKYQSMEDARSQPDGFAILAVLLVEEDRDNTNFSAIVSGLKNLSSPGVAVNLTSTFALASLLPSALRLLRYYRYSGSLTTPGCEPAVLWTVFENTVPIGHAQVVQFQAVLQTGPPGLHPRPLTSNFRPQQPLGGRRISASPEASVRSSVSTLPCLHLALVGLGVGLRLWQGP

[12] = target: Carbonic anhydrase 7 (Homo sapiens) (UniProt P43166)
[13] = target: Carbonic anhydrase 3 (Homo sapiens) (UniProt P07451)
Description: Inhibition of human recombinant carbonic anhydrase 3 by stopped flow CO2 hydration method

[14] = target: T1, Carbonic anhydrase 2; experiment: Inhibition of human recombinant carbonic anhydrase 2 by oxygen-18 isotope exchange assay
[15] = target: T1, Carbonic anhydrase 2; experiment: Inhibition of human recombinant carbonic anhydrase 2 assessed as activity of carbonic anhydrase 2 esterase activity against 4-nitrophenyl acetate

Sequence of Carbonic anhydrase 14 (Homo sapiens) (Q9ULX7 whole entry): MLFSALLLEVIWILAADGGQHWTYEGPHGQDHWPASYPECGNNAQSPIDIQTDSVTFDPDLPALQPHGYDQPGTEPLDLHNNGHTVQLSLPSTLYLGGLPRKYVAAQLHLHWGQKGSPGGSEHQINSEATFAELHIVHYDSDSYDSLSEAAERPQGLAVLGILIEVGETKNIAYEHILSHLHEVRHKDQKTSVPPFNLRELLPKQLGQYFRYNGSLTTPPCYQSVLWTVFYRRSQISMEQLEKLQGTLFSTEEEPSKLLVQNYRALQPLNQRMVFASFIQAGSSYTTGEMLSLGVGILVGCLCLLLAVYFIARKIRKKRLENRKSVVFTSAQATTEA
Sequence of Carbonic anhydrase 12 (Homo sapiens) (O43570 whole entry): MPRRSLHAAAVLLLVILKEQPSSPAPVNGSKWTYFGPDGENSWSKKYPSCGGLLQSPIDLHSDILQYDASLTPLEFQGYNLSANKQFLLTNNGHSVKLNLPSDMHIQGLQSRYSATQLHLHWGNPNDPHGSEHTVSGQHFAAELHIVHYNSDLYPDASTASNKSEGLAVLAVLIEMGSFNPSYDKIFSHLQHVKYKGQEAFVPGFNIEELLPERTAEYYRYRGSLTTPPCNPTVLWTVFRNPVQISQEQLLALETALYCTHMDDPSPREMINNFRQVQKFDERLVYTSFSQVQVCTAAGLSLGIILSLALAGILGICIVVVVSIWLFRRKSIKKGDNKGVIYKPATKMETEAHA
Sequence of Carbonic anhydrase 7 (Homo sapiens) (P43166 whole entry): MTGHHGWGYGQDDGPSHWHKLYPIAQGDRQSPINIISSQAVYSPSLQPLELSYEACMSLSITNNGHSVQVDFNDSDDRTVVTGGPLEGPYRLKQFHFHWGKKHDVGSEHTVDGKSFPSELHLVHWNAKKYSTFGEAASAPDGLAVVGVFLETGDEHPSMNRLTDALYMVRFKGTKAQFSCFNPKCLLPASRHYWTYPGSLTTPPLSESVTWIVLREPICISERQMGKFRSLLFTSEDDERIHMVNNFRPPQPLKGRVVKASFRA
Sequence of Carbonic anhydrase 5A, mitochondrial (Homo sapiens) (P35218 whole entry): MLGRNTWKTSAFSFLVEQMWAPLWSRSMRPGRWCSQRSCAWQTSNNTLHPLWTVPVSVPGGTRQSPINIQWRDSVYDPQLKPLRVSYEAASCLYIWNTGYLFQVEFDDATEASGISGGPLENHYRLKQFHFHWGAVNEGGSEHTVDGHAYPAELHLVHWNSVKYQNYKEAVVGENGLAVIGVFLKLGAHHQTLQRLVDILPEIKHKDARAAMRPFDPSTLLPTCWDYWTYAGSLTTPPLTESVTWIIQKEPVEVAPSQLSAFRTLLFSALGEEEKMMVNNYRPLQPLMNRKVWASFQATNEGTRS
Sequence of Carbonic anhydrase 3 (Homo sapiens) (P07451 whole entry): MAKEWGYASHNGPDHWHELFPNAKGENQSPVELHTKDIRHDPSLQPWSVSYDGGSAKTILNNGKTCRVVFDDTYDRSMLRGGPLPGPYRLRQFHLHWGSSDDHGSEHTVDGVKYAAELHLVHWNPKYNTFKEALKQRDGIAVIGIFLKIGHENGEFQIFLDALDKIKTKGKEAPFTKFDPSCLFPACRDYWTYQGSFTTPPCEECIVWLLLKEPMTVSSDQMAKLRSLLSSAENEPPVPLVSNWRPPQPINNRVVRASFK
Sequence of Carbonic anhydrase 1 (Homo sapiens) (P00915 2-261 limits assumed): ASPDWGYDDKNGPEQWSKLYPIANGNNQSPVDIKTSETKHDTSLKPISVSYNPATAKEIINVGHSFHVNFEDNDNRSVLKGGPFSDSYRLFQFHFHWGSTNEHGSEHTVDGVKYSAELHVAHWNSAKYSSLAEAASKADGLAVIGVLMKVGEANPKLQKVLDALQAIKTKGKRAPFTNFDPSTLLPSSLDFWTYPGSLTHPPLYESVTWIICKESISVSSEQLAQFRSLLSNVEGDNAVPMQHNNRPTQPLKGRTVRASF
Sequence of Carbonic anhydrase 5B, mitochondrial (Homo sapiens) (Q9Y2D0 whole entry): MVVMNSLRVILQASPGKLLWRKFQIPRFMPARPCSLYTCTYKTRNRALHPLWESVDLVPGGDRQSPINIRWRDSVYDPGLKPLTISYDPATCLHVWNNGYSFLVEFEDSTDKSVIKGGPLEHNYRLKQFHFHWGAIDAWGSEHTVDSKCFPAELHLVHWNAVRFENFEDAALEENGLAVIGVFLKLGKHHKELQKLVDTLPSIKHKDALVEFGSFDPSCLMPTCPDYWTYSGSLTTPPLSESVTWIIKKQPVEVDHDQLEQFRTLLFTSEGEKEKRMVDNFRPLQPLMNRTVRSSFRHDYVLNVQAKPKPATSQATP
Sequence of Carbonic anhydrase 4 (Homo sapiens) (P22748 whole entry): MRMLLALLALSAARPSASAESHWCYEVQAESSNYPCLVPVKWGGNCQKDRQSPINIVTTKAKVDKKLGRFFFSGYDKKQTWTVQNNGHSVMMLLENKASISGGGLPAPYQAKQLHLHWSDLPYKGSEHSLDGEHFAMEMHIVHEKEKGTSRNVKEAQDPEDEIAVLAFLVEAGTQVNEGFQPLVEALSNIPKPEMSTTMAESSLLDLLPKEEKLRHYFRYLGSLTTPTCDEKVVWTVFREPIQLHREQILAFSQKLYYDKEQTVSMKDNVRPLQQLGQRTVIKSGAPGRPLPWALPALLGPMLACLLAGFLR
Sequence of Carbonic anhydrase 6 (Homo sapiens) (P23280 whole entry): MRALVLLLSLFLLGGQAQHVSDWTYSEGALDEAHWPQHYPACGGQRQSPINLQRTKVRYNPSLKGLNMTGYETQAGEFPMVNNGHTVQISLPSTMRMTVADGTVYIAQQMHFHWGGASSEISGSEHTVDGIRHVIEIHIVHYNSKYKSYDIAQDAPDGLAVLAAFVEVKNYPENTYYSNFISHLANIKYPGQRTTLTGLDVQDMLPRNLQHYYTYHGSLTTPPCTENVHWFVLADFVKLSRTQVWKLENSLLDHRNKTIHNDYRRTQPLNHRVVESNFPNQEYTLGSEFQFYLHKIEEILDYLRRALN
Sequence of Carbonic anhydrase 13 (Mus musculus) (Q9D6N1 whole entry, looked up): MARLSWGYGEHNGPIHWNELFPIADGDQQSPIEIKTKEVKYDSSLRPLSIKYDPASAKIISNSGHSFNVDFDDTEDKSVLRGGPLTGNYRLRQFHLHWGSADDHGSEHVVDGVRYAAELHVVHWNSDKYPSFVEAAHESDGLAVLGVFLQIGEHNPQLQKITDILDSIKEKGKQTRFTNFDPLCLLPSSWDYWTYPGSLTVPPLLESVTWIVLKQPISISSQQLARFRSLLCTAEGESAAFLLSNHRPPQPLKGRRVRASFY

Structure (SMILES) | Kinact [1] [µM] | Kinact [2] [µM] | Kinact [3] [µM] | Kinact [4] [µM] | Kinact [5] [µM] | Ki [6] [µM] | Kinact [7] [µM] | Kinact [8] [µM] | Kinact [9] [µM] | Kinact [10] [µM] | Ki [11] [µM] | Kinact [12] [µM] | Kinact [13] [µM] | Kinact [14] [µM] | IC50 [15] [nM]
NS(=O)(=O)c1cc(Cl)c(O)c(Cl)c1 | 0.61 | 0.076 | 8.12 | 0.072 | 6.17 | 0.62 | 6.53 | 0.081 | 7.5 | 0.058 | 0.78 | 0.072 | 78.6 | – | –
O=c1oc2cc(O)ccc2s1 [TIOXOLONE] | 9.04 | 7.79 | 8.59 | 8.41 | 4.93 | 7.06 | 8.23 | 6.67 | 0.091 | 6.82 | 7.87 | 5.73 | 6.56 | 314 | 1770
